The record followed here is patent US7745390B2, “Antimicrobial peptides” (priority 2005, dated 2010).

pIC50: −log10 of the molar value. Square brackets hold non-standard residues; d marks the D form. Ends that are not written are not given here. Peptide text beside a SMILES is read from it.

The test system of one assay is Salmonella. It counts as cell-based, S. typhimurium. The settings on record: pH 7.2. How it is done:
(§1) The experiments described above characterizing the activity of granulysin peptides G1-G18 relied on counting bacterial colonies on plates. This assay is quite labor intensive and would not allow evaluation of many different compounds on a number of different microbes. Therefore, we optimized an assay in which the entire procedure could be completed in a single microtiter well. Briefly, peptides are diluted in 10 mM phosphate buffer, pH 7.2 supplemented with 0.03% LB (J. Sambrook, D. W. Russell, Molecular Cloning: A Laboratory Manual (Cold Spring Harbor Laboratory Press, New York, ed. 3, 2001) pg. A2.2, Retrieved from http://openwetware.org/wiki/LB) and 25 μl is added to microtiter wells. Bacteria (25 μl) are added (˜5×10^6 colony forming units/ml) in the same buffer. After a 3-hour incubation at 37° C., 150 μl of LB is added and the plates are incubated overnight. The OD at 600 nm is read on an ELISA plate reader. The minimum inhibitory concentration (MIC) is the lowest concentration allowing no bacterial growth. The IC50 is the concentration of peptide that results in 50% growth compared to the medium.
(§2) We now describe additional peptides and their activity. The peptides have been designed, synthesized, and have been tested for lysis of E. coli and S. typhimurium (gram negative bacteria), B. cereus (gram positive bacterium). Results are shown in Table 2 along with the amino acid sequence of the peptide. Changes from the naturally occurring sequence are underlined. In general, the desired result is lysis of bacteria at low concentration (<1 μM).
(§3) In Table 2, Columns 2-7 are the MIC and IC50 (concentration required for 50% inhibition of growth) for each organism (E. coli, Salmonella, and B. cereus). The MIC (minimum inhibitory concentration) was determined as described above, in a multiwell plate assay. […] L-isomer amino acids are designated by capital letters while D-isomer amino acids are designated by lower case letters.

A further assay deals with E. coli DH5a. The assay is classed as cell-based. The settings on record: DH5a, pH 7.2. On the procedure: as §1, §2, §3
For a further assay, the system named is B. cereus. It counts as cell-based. To be noted: pH 7.2. How it is done: as §1, §2, §3

Consider `CSCC[C@@H](NC(=O)[C@@H](Cc1ccccc1)NC(=O)[C@@H](CCCCN)NC(=O)[C@@H](CCCCN)NC(=O)[C@@H](CO)NC(=O)[C@H](NC(=O)[C@@H](CCCCN)NC(=O)[C@@H](CCCCN)NC(=O)[C@@H](CO)NC(=O)CNC(=O)[C@@H](CCCCN)NC(=O)[C@@H](CCCCN)NC(=O)[C@@H](CCSC)NC(=O)[C@@H](Cc1ccccc1)NC(=O)[C@@H](CCCCN)NC(=O)[C@@H](CCCCN)NC(=O)[C@@H](CO)NC(=O)[C@H](NC(=O)[C@@H](CCCCN)NC(=O)[C@H](N)CCCCN)C(C)C)C(C)C)C(=O)N[C@H](CCCCN)C(=O)N[C@H](CCCCN)C(=O)O` [Peptide G11.54, kkvskkfmkkgskkvskkfmkk], for which, in the assay with Salmonella, the pIC50 is < 5.00 and the “Salmonella MIC” value is >10 µM. In the assay on E. coli DH5a, the “E. coli DH5a MIC” value is >10 µM and the pIC50 is 5.08. In the assay with B. cereus, the “B. cereus MIC” value stood at 0.35 µM and the pIC50 was 6.68.

On to `CC[C@H](C)[C@H](NC(=O)[C@H](NC(=O)[C@H](CCCNC(=N)N)NC(=O)[C@H](CO)NC(=O)[C@H](CCC(N)=O)NC(=O)[C@@H](CCCNC(=N)N)NC(=O)[C@@H](CCCNC(=N)N)NC(=O)[C@H](CCSC)NC(=O)[C@H](Cc1ccccc1)NC(=O)[C@@H](CCCNC(=N)N)NC(=O)[C@H](CCCNC(=N)N)NC(=O)[C@@H](C)NC(=O)[C@@H](NC(=O)[C@H](CC(=O)O)NC(=O)[C@@H](N)CCCNC(=N)N)C(C)C)C(C)C)C(=O)N[C@@H](CO)C(=O)N[C@@H](CCCNC(=N)N)C(=O)N[C@H](CC(C)C)C(=O)N[C@H](C(=O)O)C(C)C` [Peptide G12.17, RDVaRrFMrrQSRvISRlV] (H-RDV[dA]R[dR]FM[dR][dR]QSR[dV]ISR[dL]V-OH; N-terminus and C-terminus assumed), for which, in the assay on Salmonella, the pIC50 was 5.80 and the “Salmonella MIC” value worked out at 2.8 µM. Besides, in the assay on E. coli DH5a, the “E. coli DH5a MIC” value amounted to 3.3 µM and the negative logarithm of the IC50 (pIC50) was 6.05. In the assay with B. cereus, the “B. cereus MIC” value was found to be 2.8 µM and the pIC50 is 5.76.

RRVSRRFMRRGSRRVSRRFMRR [Peptide G11.7]: in the assay on Salmonella, the pIC50 is 6.68 and the “Salmonella MIC” value is 0.35 µM. For the same molecule, in the assay on E. coli DH5a, the “E. coli DH5a MIC” value was 0.35 µM and the negative-log IC50 (pIC50) was 6.68. Moreover, in the assay on B. cereus, the “B. cereus MIC” value came out at 0.35 µM and the pIC50 was 6.68.

“QRAVARAATRVARTGRARWRDVARRFMRR [Peptide G8.7]”: in the assay on Salmonella, the negative-log IC50 (pIC50) is 6.38 and the “Salmonella MIC” value was 0.7 µM. Moreover, in the assay with E. coli DH5a, the “E. coli DH5a MIC” value turned out to be 1.4 µM and the pIC50 is 6.07. For the same molecule, in the assay on B. cereus, the “B. cereus MIC” value turned out to be 0.7 µM and the pIC50 was 6.35.

With “QRAVARAATRVARTGRARWRDVARNFMRR [Peptide G8.5]”, in the assay on Salmonella, the pIC50 was 6.38 and the “Salmonella MIC” value was 0.7 µM. Moreover, in the assay on E. coli DH5a, the “E. coli DH5a MIC” value turned out to be 1.4 µM and the pIC50 was 6.06. For the same molecule, in the assay on B. cereus, the “B. cereus MIC” value came out at 1.4 µM and the pIC50 was 6.06.

Turning to “QRSVSRAATRVSRTGRSNWRDVGRRFMRR [Peptide G8.15]”, in the assay with Salmonella, the pIC50 is 6.39 and the “Salmonella MIC” value was 0.7 µM. Also, in the assay with E. coli DH5a, the “E. coli DH5a MIC” value worked out at 0.8 µM and the pIC50 was 6.35. In addition, in the assay on B. cereus, the “B. cereus MIC” value is 0.7 µM and the pIC50 is 6.35.

Regarding KKVSKKFMKKYQSKVIQGLV [Peptide G12.9], in the assay with Salmonella, the pIC50 was 6.07 and the “Salmonella MIC” value amounted to 1.4 µM. For the same molecule, in the assay with E. coli DH5a, the “E. coli DH5a MIC” value is 1.35 µM and the pIC50 was 6.31. Besides, in the assay on B. cereus, the “B. cereus MIC” value stood at 5.6 µM and the pIC50 is 5.45.

Broadly, the pIC50 is −log10 of the IC50, conventionally taken in molar units. Low readings indicate a large IC50, high ones a small IC50.
